Source: US6004957A, “Sulfonamide inhibitors of aspartyl protease” (Vertex Pharmaceuticals, Incorporated, priority 1998, dated 1999)

Tested on: HIVIIIb in CCRM-CEM cells
Experiment: Anti-viral potency in CCRM-CEM cells acutely infected with HIVIIIb (method of Meek et al.), extracellular p24 antigen
Format: cell-based, HIV-1
Details: Human immunodeficiency virus 1, HIV replication, Table VIII, read-out: IC90 Range
Text: As discussed above, the novel compounds of the present invention are excellent ligands for aspartyl proteases, particularly HIV-1 and HIV-2 proteases. Accordingly, these compounds are capable of targeting and inhibiting late stage events in HIV replication, i.e., the processing of the viral polyproteins by HIV encoded proteases. […] Because aspartyl protease is essential for the production of mature virions, inhibition of that processing effectively blocks the spread of virus by inhibiting the production of infectious virions, particularly from chronically infected cells. […] Other anti-viral assays have confirmed the potency of these compounds.
Compounds of formula I were tested for their antiviral potency in several virological assays. In the first assay, the compounds were added as a solution in dimethylsulfoxide (DMSO) to a test cell culture of CCRM-CEM cells, a strain of CD4^+ human T-cell lymphoma cells, previously acutely infected with HIVIIIb using standard protocols (see Meek, T. D. et al., "Inhibition of HIV-1 protease in infected T-lymphocytes by synthetic peptide analogues", Nature, 343, p. 90 (1990). Preferred compounds are those which are able to inhibit 90% of viral infectivity at a concentration of 1 μM or less. More preferred compounds are those which are able to inhibit 90% of viral infectivity at a concentration of 100 nM or less.
The effect of the compounds on inhibiting the replication of the virus was measured by determining the HIV extracellular p24 antigen concentration using a commercial enzyme immunoassay (obtained from Coulter Corporation, Hialeah, Fla.).

SMILES	IC90
NC(=O)C[C@H](NC(=O)c1ccc2ccccc2n1)C(=O)N[C@@H](Cc1ccccc1)[C@H](O)CN(Cc1ccccc1)S(=O)(=O)c1ccccc1 [Compound 1]	1000 to 10000 nM
Cc1noc(C)c1S(=O)(=O)N(Cc1ccccc1)C[C@@H](O)[C@H](Cc1ccccc1)NC(=O)[C@H](CC(N)=O)NC(=O)c1ccc2ccccc2n1 [Compound 3]	1000 to 10000 nM
NC(=O)C[C@H](NC(=O)c1ccc2ccccc2n1)C(=O)N[C@@H](Cc1ccccc1)[C@H](O)CN(Cc1ccccc1)S(=O)(=O)c1cccc(C(F)(F)F)c1 [Compound 4]	1000 to 10000 nM
CC(=O)Nc1nc(C)c(S(=O)(=O)N(Cc2ccccc2)C[C@@H](O)[C@H](Cc2ccccc2)NC(=O)[C@H](CC(N)=O)NC(=O)c2ccc3ccccc3n2)s1 [Compound 5]	101 to 1000 nM
NC(=O)C[C@H](NC(=O)c1ccc2ccccc2n1)C(=O)N[C@@H](Cc1ccccc1)[C@H](O)CN(Cc1ccccc1)S(=O)(=O)c1ccc(-c2ccon2)s1 [Compound 6, (S)-N-1-(1-Benzyl-3-(benzyl-(5-isoxazol-3-yl-thiophene-2-sulfonyl)-amino)-(1S,2 syn)-1-benzyl-2-hydroxy-propyl)-2-((quinoline-2-carbonyl)-amino)-succinamide]	101 to 1000 nM
NC(=O)C[C@H](NC(=O)c1ccc2ccccc2n1)C(=O)N[C@@H](Cc1ccccc1)[C@H](O)CN(Cc1ccccc1)S(=O)(=O)c1cccc(C(=O)O)c1 [Compound 7]	10000 to 40000 nM
NC(=O)C[C@H](NC(=O)c1ccc2ccccc2n1)C(=O)N[C@@H](Cc1ccccc1)[C@H](O)CN(Cc1ccccc1)S(=O)(=O)c1cccc2nonc12 [Compound 9, (S)-N-1-(3-((Benzo(1,2,5)oxadiazole-4-sulfonyl)-benzyl-amino)-(1S,2 syn)-1-benzyl-2-hydroxy-propyl)-2-((quinoline-2-carbonyl)-amino)-succinamide]	101 to 1000 nM
NC(=O)C[C@H](NC(=O)c1ccc2ccccc2n1)C(=O)N[C@@H](Cc1ccccc1)[C@H](O)CN(Cc1ccccc1)S(=O)(=O)c1cccc(S(N)(=O)=O)c1 [Compound 10, N-1-(1-(S)-Benzyl-3-(benzyl-(3-sulfamoyl-benzenesulfonyl)-amino)-2-(syn)-hydroxy-propyl)-2-((quinoline-2-carbonyl)-amino)-succinamide]	101 to 1000 nM
CC(C)CN(C[C@@H](O)[C@H](Cc1ccccc1)NC(=O)[C@H](CC(N)=O)NC(=O)c1ccc2ccccc2n1)S(=O)(=O)c1cc(S(=O)(=O)c2ccccc2)cs1 [Compound 13, (S)-N-1-(3-((4-Benzenesulfonyl-thiophene-2-sulfonyl)-isobutyl-amino)-(1S,2 syn)-1-benzyl-2-hydroxy-propyl)-2-((quinoline-2-carbonyl)-amino)-succinamide]	< 100 nM
CC(C)CN(C[C@@H](O)[C@H](Cc1ccccc1)NC(=O)[C@H](CC(N)=O)NC(=O)c1ccc2ccccc2n1)S(=O)(=O)c1ccc(F)cc1 [Compound 14, (S)-N-1-(1-(S)-Benzyl-3-((4-fluoro-benzenesulfonyl)-isobutyl-amino)-2-(syn)-hydroxy-propyl)-2-((quinoline-2-carbonyl)-amino)-succinamide]	< 100 nM
CC(=O)Nc1ccc(S(=O)(=O)N(CC(C)C)C[C@@H](O)[C@H](Cc2ccccc2)NC(=O)[C@H](CC(N)=O)NC(=O)c2ccc3ccccc3n2)cc1F [Compound 15, (S)-N-1-(3-((4-Acetylamino-3-fluoro-benzenesulfonyl)-isobutyl-amino)-(1S,2 syn)-1-benzyl-2-hydroxy-propyl)-2-((quinoline-2-carbonyl)-amino)-succinamide]	< 100 nM
CC(=O)Nc1cc(S(=O)(=O)N(CC(C)C)C[C@@H](O)[C@H](Cc2ccccc2)NC(=O)[C@H](CC(N)=O)NC(=O)c2ccc3ccccc3n2)ccc1F [Compound 16, (S)-N-1-(3-((3-Acetylamino-4-fluoro-benzenesulfonyl)-isobutyl-amino)-(1S,2 syn)-1-benzyl-2-hydroxy-propyl)-2-((quinoline-2-carbonyl)-amino)-succinamide]	101 to 1000 nM
CC(=O)Nc1ccc(S(=O)(=O)N(CC(C)C)C[C@@H](O)[C@H](Cc2ccccc2)NC(=O)[C@H](CC(N)=O)NC(=O)c2ccc3ccccc3n2)cc1 [Compound 17, (S)-N-1-(1-(S)-Benzyl-3-((4-acetylamino-benzenesulfonyl)-isobutyl-amino)-2-(syn)-hydroxy-propyl)-2-((quinoline-2-carbonyl)-amino)-succinamide]	101 to 1000 nM
CC(=O)Nc1nc(C)c(S(=O)(=O)N(CC(C)C)C[C@@H](O)[C@H](Cc2ccccc2)NC(=O)[C@H](CC(N)=O)NC(=O)c2ccc3ccccc3n2)s1 [Compound 18]	101 to 1000 nM
CC(=O)Nc1cccc(S(=O)(=O)N(CC(C)C)C[C@@H](O)[C@H](Cc2ccccc2)NC(=O)[C@H](CC(N)=O)NC(=O)c2ccc3ccccc3n2)c1 [Compound 19, (S)-N-1-(3-((3-Acetylamino-benzenesulfonyl)-isobutyl-amino)-(1S,2 syn)-1-benzyl-2-hydroxy-propyl)-2-((quinoline-2-carbonyl)-amino)-succinamide]	101 to 1000 nM
CC(C)CN(C[C@@H](O)[C@H](Cc1ccccc1)NC(=O)[C@H](CC(N)=O)NC(=O)c1ccc2ccccc2n1)S(=O)(=O)c1cccc2nonc12 [Compound 20, (S)-N-1-(3-((Benzo(1,2,5)oxadiazole-4-sulfonyl)-isobutyl-amino)-(1S,2 syn)-1-benzyl-2-hydroxy-propyl)-2-((quinoline-2-carbonyl)-amino)-succinamide]	< 100 nM
CC(C)CN(C[C@@H](O)[C@H](Cc1ccccc1)NC(=O)[C@H](CC(N)=O)NC(=O)c1ccc2ccccc2n1)S(=O)(=O)N(C)C [Compound 21, N-1-((1S-2 syn)-1-Benzyl-2-hydroxy-3-(1-isobutyl-3,3-dimethylsulfonylurea)-propyl)-2-((quinoline-2-carbonyl)-amino)-succinamide]	< 100 nM

SMILES	IC90
CC(=O)Nc1ccc(S(=O)(=O)N(CC(C)C)C[C@@H](O)[C@H](Cc2ccccc2)NC(=O)[C@@H](NC(=O)OCc2ccccn2)C(C)C)cc1 [Compound 22]	101 to 1000 nM
C=CCOC(=O)N[C@@H](Cc1ccccc1)[C@H](O)CN(CC(C)C)S(=O)(=O)c1ccc(NC(C)=O)cc1 [Compound 27]	1000 to 10000 nM
CC(=O)Nc1ccc(S(=O)(=O)N(CC(C)C)C[C@@H](O)[C@H](Cc2ccccc2)NC(=O)OC(C)C)cc1 [Compound 29]	1000 to 10000 nM
CC(C)CN(C[C@@H](O)[C@H](Cc1ccccc1)NC(=O)OC(C)(C)C)S(=O)(=O)c1ccc(F)cc1 [Compound 32]	1000 to 10000 nM
CC(C)CN(C[C@@H](O)[C@H](Cc1ccccc1)NC(=O)O[C@H]1CCOC1)S(=O)(=O)c1ccc(F)cc1 [Compound 35, 4-Fluoro-N-((2 syn,3S)-2-hydroxy-4-phenyl-3-((S)-tetrahydrofuran-3-yloxycarbonylamino)-butyl)-N-isobutyl-benzenesulfonamide]	101 to 1000 nM
CC(C)CN(C[C@@H](O)[C@H](Cc1ccccc1)NC(=O)O[C@H]1CCOC1)S(=O)(=O)c1ccc(Cl)c(Cl)c1 [Compound 37, 3,4-Dichloro-N-((2 syn,3S)-2-hydroxy-4-phenyl-3-((S)-tetrahydrofuran-3-yloxycarbonylamino)-butyl)-N-isobutyl-benzenesulfonamide]	101 to 1000 nM
CC(C)CN(C[C@@H](O)[C@H](Cc1ccccc1)NC(=O)OCc1ccccc1)S(=O)(=O)c1ccc(F)cc1 [Compound 38]	1000 to 10000 nM
CC(=O)Nc1ccc(S(=O)(=O)N(CC(C)C)C[C@@H](O)[C@H](Cc2ccccc2)NC(=O)OC(C)(C)C)cc1 [Compound 39]	1000 to 10000 nM
CC(=O)Nc1ccc(S(=O)(=O)N(CC(C)C)C[C@@H](O)[C@H](Cc2ccccc2)NC(=O)OCc2cccnc2)cc1 [Compound 44, N-(4-(((2 syn,3S)-2-Hydroxy-4-phenyl-3-(pyridin-3-yl-methoxycarbonylamino)-butyl)-isobutyl-sulfamoyl)-phenyl)-acetamide]	101 to 1000 nM
CC(C)CN(C[C@@H](O)[C@H](Cc1ccccc1)NC(=O)OC(C)(C)C)S(=O)(=O)c1ccccc1 [Compound 45]	1000 to 10000 nM
CC(=O)Nc1ccc(S(=O)(=O)N(CC(C)C)C[C@@H](O)[C@H](Cc2ccccc2)NC(=O)O[C@H]2CCOC2)cc1 [Compound 48, N-(4-(((2 syn,3S)-2-Hydroxy-4-phenyl-3-((S)-tetrahydrofuran-3-yloxycarbonylamino)-butyl)-isobutyl-sulfamoyl)-phenyl)-acetamide]	101 to 1000 nM
CC(C)CN(C[C@@H](O)[C@H](Cc1ccccc1)NC(=O)OC(C)(C)C)S(=O)(=O)c1ccc(F)cc1F [Compound 49]	1000 to 10000 nM
CC(C)CN(C[C@@H](O)[C@H](Cc1ccccc1)NC(=O)O[C@H]1CCOC1)S(=O)(=O)c1ccc(-c2ccccn2)s1 [Compound 51]	1000 to 10000 nM
CC(=O)Nc1cc(S(=O)(=O)N(CC(C)C)C[C@@H](O)[C@H](Cc2ccccc2)NC(=O)OC(C)(C)C)ccc1F [Compound 54]	1000 to 10000 nM
CC(C)CN(C[C@@H](O)[C@H](Cc1ccccc1)NC(=O)O[C@H]1CCOC1)S(=O)(=O)c1cccc2nonc12 [Compound 60]	1000 to 10000 nM
CC(=O)Nc1ccc(S(=O)(=O)N(CC(C)C)C[C@@H](O)[C@H](Cc2ccccc2)NC(=O)OCc2ccccc2)cc1 [Compound 61]	1000 to 10000 nM
CC(C)CN(C[C@@H](O)[C@H](Cc1ccccc1)NC(=O)OCc1ccccc1)S(=O)(=O)c1ccc(N)c([N+](=O)[O-])c1 [Compound 63]	1000 to 10000 nM
